Experimental data: US20170107254A1, “Modified Antimicrobial Peptides” (priority 2014, published 2017)
Converted amounts (≈) assume the structure as drawn. Read-outs that look alike come from different tables or passages of the source. No end group written: not given here.

Columns and labels:
[1] = tested on: A. fumigatus (AM2002/066 and NPCF2939); assay: Antifungal activity (CLSI M38-A2 micro-broth dilution) and MFC; type: cell-based; conditions: for A. fumigatus MIC100 / MIC: Table 5, average of two strains, 48 h at 30° C.; for MIC: read-out: A. fumigatus MIC100
Protocol: (§1) The fungal strains A. fumigatus (AM2002/066 and NPCF2939), A. flavus (01-1554 and NPCF7117) and A. niger (01-1494 and NCPF2022) were obtained from the National Collection of Pathogenic Fungi (NPCF) or American Type Culture Collection (ATCC). Fungal strains were grown on SAB slopes for 72 h at 30° C. before experimental use. C. albicans strain SC5314 was purchased from ATCC and grown overnight on SAB slopes at 30° C. before experimental use.
(§2) The antifungal activity of peptides was examined using the conditions of the Clinical Laboratory Standards Institute document M38-A2. Peptide antifungal activity was assessed by micro-broth dilutions with a serial two-fold dilution of test compound prepared in a 96 well plate from 0 to maximum concentration to be tested (here 2× concentration required, 250 μg/ml). Fungal suspensions were prepared by flooding slopes with PBS and filtering through gauze to collect spores. The suspension was then adjusted to a density of 2×10^4 colony-forming units/ml in 2× culture medium (RPMI 1640, 0.165 M MOPS, pH 7.4 with L-glutamine, without NaHCO3 medium) and an equal volume was added to the different peptide concentrations in the 96 well plate. Plates where incubated at 30° C. for 48 h before growth inhibition was determined by measuring absorbance at 530 nm (Biotek Powerwave). Antifungal activity was defined by the minimum inhibitory concentration (MIC), the concentration at which no growth was observed.
(§3) For examining the minimum fungicidal concentration (MFC) 10 μl of fungal and peptide suspension was transferred from every well to the corresponding well in a sterile 96-well plate containing fresh culture medium (RPMI-1640, 0.165 M MOPS, pH 7.4 with L-glutamine, without NaHCO3 medium). Aspergillus was then incubated for a further 48 h after which absorbance was measured at 530 nm. MFC was defined as the concentration at which no growth was observed.

[2] = tested on: A549 cells; conditions: lipid alone at 200 μg/ml
Protocol: The cell lines A549 (Human Lung Adenocarcinoma Epithelial Cell Line) and HepG2 (Human Hepatocellular Carcinoma Cell Line) were purchased from ATCC. A549 cells were maintained in F-12K medium (Gibco) containing 10% foetal bovine serum (Life Technologies) and 1% penicillin/streptomycin (Life Technologies) and HepG2 cells were maintained in Dulbecco's modified eagles medium (Gibco) containing 10% foetal bovine serum (Life Technologies), penicillin/streptomycin (Life Technologies) and 1% 0.01 mg/ml human transferrin (Sigma). Both were incubated at 37° C. with 5% CO2 until cells reached >80% confluence before splitting or experimental use.
Before exposure to peptides, the plate was incubated at 37° C. with 5% CO2 overnight to allow cells adhere. […] Medium was removed from the plate containing cells and peptide dilutions were transferred to cells and incubated for a further 3 h at 37° C. with 5% CO2. Cytotoxicity was determined by LIVE/DEAD® Viability/Cytotoxicity kit (Invitrogen Life Technologies), a working solution of 2 μM calcein AM and 4 μM EthD-1 and in conjunction Alamar Blue at a final concentration of 10% was added to the wells. Cells without peptides were the negative control and 1% DMSO was the positive control. Cells were incubated for 3 h again at 37° C. with 5% CO2.

[3] = tested on: human red blood cells (hRBC); assay: Haemolysis of human red blood cells; conditions: lipid alone at 200 μg/ml
Protocol: Peptides were tested for their haemolytic activity against human red blood cells (hRBC). Fresh hRBCs collected in BD Vacutainer® tubes with EDTA were rinsed 3 times with PBS (pH 7.4) by centrifugation for 10 min at 800 g and resuspended, 1 in 10 diluted with PBS. […] Release of haemoglobin was then calculated by transferring supernatant to a flat bottomed 96-well plate and measuring absorbance at 578 nm. hRBCs with no peptides added and H2O provided the controls.

[4] = tested on: C. albicans SC5314
Protocol: (B) Efficacy of AMPs of same length was evaluated by MIC after 24 incubation at 37° C. Data is expressed as percentage of the positive growth controls. Data is the mean±standard error of the mean (n=3).
The efficacy of AMPs was determined versus C. albicans SC5314 before evaluating the effect of pH on activity.

[5] = tested on: C. albicans SC5314; type: cell-based; conditions: RPMI-1640, 48 h data
Protocol: The purity of the peptide was taken into account during the preparation to ensure preparation of the correct concentration. Peptides solutions were stored at −20° C. until required.
The antifungal activity of the peptides was based on that of the Clinical Laboratory Standards Institute document M27-A3. A serial two-fold dilution of peptide was prepared across a 96-well microtitre plate with concentration ranging from 2 mg/ml to […]; upon addition of the cells these concentrations shall be halved, with additional wells lacking peptide as a 0 mg/ml control. An addition control lacking culture was also prepared.
To prepare the fungal inoculum, an overnight culture of C. albicans SC5314 was grown at 30° C. on Sabouraud dextrose agar. Cells were washed from the surface of the agar and diluted to the equivalent of the 0.5 MacFarland standard. A further 1:50 dilution of the cells into 2×RPMI-1640 was carried out, and an equal volume was added to the different peptide concentrations in the microtitre plate. To measure the metabolic activity of the cells, 10 μl of a 0.25% solution of resazurin was added to each well. Plates were incubated in the dark at 30° C. for 48 h with growth inhibition determined by measuring absorbance at 530 nm/590 nm at 0 h, 24 h and 48 h on a BioTek PoweWave. Antifungal activity was defined by the minimum inhibitory concentration (MIC), the concentration at which no growth was observed.

[6] = tested on: C. albicans SC5314; type: cell-based; conditions: RPMI-1640 and 25% plasma, 24 h data
Protocol: A peptide “master” plate was prepared by the addition of 200 μl of the 20 mg/ml stock to column 11 on a microtitre plate. One hundred microliters of sterile water was added to the remaining wells. Serial two-fold dilutions of the peptides were carried out across the plate from right to left. From the “master” plate, 25 μl of peptides were added to corresponding wells on three “working” plates. To each well on the “working” plate, 25 μl human plasma was added, resulting in the halving of both the concentration of the peptide in the working plate and human plasma. Column 12 contained the controls.
An overnight culture of C. albicans SC5314 was grown at 30° C. on Sabouraud dextrose agar and the cells were washed from the surface of the agar and diluted to the equivalent of the 0.5 MacFarland standard. A further 1:50 dilution of the cells into 2×RPMI-1640 was carried out, and 50 μl of the cell suspension was added to each well of the plate. […] Plates were incubated at 30° C. for 48 h with growth inhibition determined by measuring absorbance at 530 nm at 0 h, 24 h and 48 h on a BioTek PoweWave. Antifungal activity was defined by the minimum inhibitory concentration (MIC), the concentration at which no growth was observed.

[7] = tested on: A. flavus (01-1554 and NPCF7117); assay: Antifungal activity (CLSI M38-A2 micro-broth dilution) and MFC; type: cell-based; conditions: Table 5, average of two strains, 48 h at 30° C.; for MIC: Aspergillus flavus, read-out: A. flavus MIC100
Protocol: as §1, §2, §3

[8] = tested on: A. niger (01-1494 and NCPF2022); assay: as above; type: cell-based; conditions: Table 5, average of two strains, 48 h at 30° C.; for MIC: Aspergillus niger, NCPF2022, read-out: A. niger MIC100
Protocol: as §1, §2, §3

[9] = tested on: C. albicans SC5314; type: cell-based
Protocol: 1×RPMI-1640 Buffered with Citrate Phosphate Buffer
Citrate phosphate buffer was prepared by mixing 0.1 M citric acid and 0.2 M dibasic sodium phosphate dodecahydrate in the proportions indicated in the Table 2 and the volume adjusted to 90 ml with dH2O.
pH buffered medium was prepared by dissolving 1.04 g RPMI-1640 premix powder in 10 ml citrate phosphate buffer. The volume was then adjusted to 40 ml with dH2O and the pH adjusted by addition of the acid or base. The volume was adjusted to 50 ml with dH2O. The medium was then filter sterilized by vacuum filtration through a 0.2 μm filter and stored at 4° C. and kept for up to 2 weeks.
The pH of RPMI-1640 was altered, using citrate phosphate buffer, to reflect the more acidic pH environment in the oral cavity. NP319 and NP377 were active against C. albicans SC5314 from pH 5.5-7.0 (Table 2). For all AMPs tested the optimum pH for activity was pH 5.5. NP377 maintained activity at 2 μg/ml from pH 5.5-7 with reduced activity at pH 5.

[10] = neutral pH, no saliva, 24 h incubation at 37° C.

For `CCCCCC(=O)O` [Hexanoic (C6), Hexanoic], the “% Growth Inhibition of A. fumigatus at 48 h” value (“% Growth Inhibition” below) ([1]; lipid alone at 200 μg/ml, 48 h) was 50%, the “% A549 Cell Death at 3 h” value [2] was 0% and the “% Haemolytic Activity at 3 h” value [3] was 40%.
With “Palm-dRdRdRdRdRdRdRdRdRdRdRdR-CONH [NP375]” the MIC100 [4, 10] was 16 mg/L.
For `CCCCCCCCCCCCCC(=O)O` [Tetradecanoic (C14), Tetradecanoic], the “% Growth Inhibition” value ([1]; lipid alone at 200 μg/ml, 48 h) was 15%, the “% A549 Cell Death at 3 h” value [2] was 0% and the “% Haemolytic Activity at 3 h” value [3] was 20%.
`CCCC(=O)O` [Butanoic (C4), Butanoic] was tested, and the “% Growth Inhibition” value ([1]; lipid alone at 200 μg/ml, 48 h) was 35%, the “% A549 Cell Death at 3 h” value [2] was 0% and the “% Haemolytic Activity at 3 h” value [3] was 30%.
For `N=C(N)NCCC[C@H](NC(=O)[C@H](CCCNC(=N)N)NC(=O)[C@H](CCCNC(=N)N)NC(=O)[C@H](CCCNC(=N)N)NC(=O)[C@H](CCCNC(=N)N)NC(=O)[C@H](CCCNC(=N)N)NC(=O)[C@H](CCCNC(=N)N)NC(=O)[C@H](CCCNC(=N)N)NC(=O)[C@H](CCCNC(=N)N)NC(=O)[C@H](CCCNC(=N)N)NC(=O)[C@H](CCCNC(=N)N)NC(=O)[C@H](CCCNC(=N)N)NC(=O)[C@H](CCCNC(=N)N)NC(=O)[C@@H](N)CCCNC(=N)N)C(=O)O` [Novamycin], the MIC50 [5] was under 2 mg/L, the MIC80 [5] was 2 mg/L (≈ 0.907 µM) and the MIC100 [5] was 4 mg/L (≈ 1.81 µM). It also gave an MIC50 [6] of 78.1 mg/L (≈ 35.4 µM), an MIC80 [6] of 156.25 to 312.5 mg/L and an MIC100 [6] of 312.5 mg/L (≈ 142 µM).
In the case of Poly-L-Arg, HCl salt [NP121], the MIC80 [4, 10] is reported as 64 mg/L.
With `CCCCCCCCCC(=O)O` [Decanoic (C10), Decanoic] the “% Growth Inhibition” value ([1]; lipid alone at 200 μg/ml, 48 h) was 20%, the “% A549 Cell Death at 3 h” value [2] was 25% and the “% Haemolytic Activity at 3 h” value [3] was 10%.
Compound `CC(=O)O` [Acetic (C2), Acetic] has an inhibition at 200 µg/mL ([1]; Aspergillus fumigatus, lipid alone at 200 μg/ml, 48 h, read-out: % Growth Inhibition of A. fumigatus at 48 h) of 5%.
`CCCCCCCCCCCCCCCC(=O)O` [Palmitic (C16), Palmitic] was tested, and the “% Growth Inhibition” value ([1]; lipid alone at 200 μg/ml, 48 h) was 0% and the “% A549 Cell Death at 3 h” value [2] was 10%.
For `CCC(C)n1ncn(-c2ccc(N3CCN(c4ccc(OCC5COC(Cn6cncn6)(c6ccc(Cl)cc6Cl)O5)cc4)CC3)cc2)c1=O` (stereo not shown) [Itraconcazole], the “A. flavus MIC100” value [7] was 1 mg/L, the “A. fumigatus MIC100” value [1] was under 1 mg/L and the “A. niger MIC100” value [8] was under 1 mg/L.
In the case of RRRFRFRFRFRRR [NP466], the MIC90 ([4]; SC5314, 24 h) is reported as 32 mg/L and the MIC100 [4, 10] is reported as “did not achieve a MIC100”.
`CCCCCCCC(=O)O` [Octanoic (C8), Octanoic] was tested, and the “% Growth Inhibition” value ([1]; lipid alone at 200 μg/ml, 48 h) was 60% and the “% A549 Cell Death at 3 h” value [2] was 5%.
Compound `OC(Cn1cncn1)(Cn1cncn1)c1ccc(F)cc1F` [Fluconazole] has an MIC [7] of 64 mg/L (≈ 209 µM), an MIC ([1]; Aspergillus fumigatus) of 64 mg/L (≈ 209 µM) and an MIC [8] of 64 mg/L (≈ 209 µM).
For `CCCCCCCCCCCC(=O)O` [Dodecanoic (C12), Dodecanoic], the “% Growth Inhibition” value ([1]; lipid alone at 200 μg/ml, 48 h) was 45%, the “% A549 Cell Death at 3 h” value [2] was 20% and the “% Haemolytic Activity at 3 h” value [3] was 20%.
`C[C@@H]1[C@H](O)[C@@H](C)/C=C/C=C/CC/C=C/C=C/C=C/C=C/C(O[C@H]2O[C@H](C)[C@@H](O)[C@H](N)[C@@H]2O)CC2O[C@](O)(CC(O)C(O)CCC(O)CC(O)CC(O)CC(=O)O[C@H]1C)CC(O)C2C(=O)O` (stereo partly shown) [Nystatin] was tested, and the MIC50 ([9]; pH 4.5) was 2 mg/L (≈ 2.16 µM), the MIC100 ([9]; pH 4.5) was 2 mg/L (≈ 2.16 µM) and the MIC50 ([9]; pH 5) was 1 mg/L (≈ 1.08 µM). For the same compound, the MIC100 ([9]; pH 5) was 1 mg/L (≈ 1.08 µM), the MIC50 ([9]; pH 5.5) was 1 mg/L (≈ 1.08 µM) and the MIC100 ([9]; pH 5.5) was 1 mg/L (≈ 1.08 µM). It also gave an MIC50 ([9]; pH 6) of 1 mg/L (≈ 1.08 µM), an MIC100 ([9]; pH 6) of 1 mg/L (≈ 1.08 µM) and an MIC50 ([9]; pH 6.5) of 1 mg/L (≈ 1.08 µM). The MIC100 ([9]; pH 6.5) was 1 mg/L (≈ 1.08 µM), the MIC50 ([9]; pH 7) was 1 mg/L (≈ 1.08 µM) and the MIC100 ([9]; pH 7) was 1 mg/L (≈ 1.08 µM).
In the case of `CC[C@H](C)C[C@H](C)CCCCCCCCC(=O)N[C@H]1C[C@@H](O)[C@@H](NCCN)NC(=O)[C@@H]2[C@@H](O)CCN2C(=O)[C@H]([C@H](O)CCN)NC(=O)[C@H]([C@H](O)[C@@H](O)c2ccc(O)cc2)NC(=O)[C@@H]2C[C@@H](O)CN2C(=O)[C@H]([C@@H](C)O)NC1=O` [Caspofungin], the MIC [7] is reported as 128 mg/L (≈ 117 µM), the MIC ([1]; Aspergillus fumigatus) is reported as 64 mg/L (≈ 58.5 µM) and the MIC [8] is reported as 16 mg/L (≈ 14.6 µM).
Compound “dHdHdRdRdRdRdRdRdRdRdRdRdRdRdR-CONH [NP376]” has an MIC100 [4, 10] of 2 mg/L.
With `C[C@@H]1[C@H](O)[C@@H](C)/C=C/C=C/C=C/C=C/C=C/C=C/C=C/[C@H](O[C@@H]2O[C@H](C)[C@@H](O)[C@H](N)[C@@H]2O)C[C@@H]2O[C@](O)(C[C@@H](O)C[C@@H](O)[C@H](O)CC[C@@H](O)C[C@@H](O)CC(=O)O[C@H]1C)C[C@H](O)[C@H]2C(=O)O` [Amphotericin B] the “A. flavus MIC100” value [7] was 1.5 mg/L, the “A. fumigatus MIC100” value [1] was 1 mg/L and the “A. niger MIC100” value [8] was under 1 mg/L.
